Values belong to the compound of their own block, whether it stands above or below them.
Test: solvent given as SMILES
[1] = in O=P(c1ccccc1)(c1ccccc1)c1ccccc1Oc1ccccc1P(=O)(c1ccccc1)c1ccccc1

Structure (SMILES): CCC1(CC)c2cc(B(c3c(C)cc(C)cc3C)c3c(C)cc(C)cc3C)ccc2-c2c1c1c(c3c2C(CC)(CC)c2cc(B(c4c(C)cc(C)cc4C)c4c(C)cc(C)cc4C)ccc2-3)C(CC)(CC)c2cc(B(c3c(C)cc(C)cc3C)c3c(C)cc(C)cc3C)ccc2-1
- emission maximum (in C1CCOC1): 386 nm
- emission maximum (in CC#N): 403 nm
- emission maximum (in CC(C)=O): 396 nm
- emission maximum (in CCCCCC): 382 nm
- emission maximum (in Cc1ccccc1): 385 nm

- emission maximum (in ClC(Cl)Cl): 461 nm
Structure (SMILES): COc1ccc(C2=Cc3c4ccccc4c4ccccc4[n+]3[B-](F)(F)O2)cc1

- emission maximum (in CO): 375 nm
Structure (SMILES): O=C(O)CCCc1ccc2ccc3cccc4ccc1c2c34

- emission maximum (in ClCCl): 521 nm
Structure (SMILES): C[Si]1(C)O[Si](C)(C)c2cc3c(-c4ccccc4)c4cc([N+](=O)[O-])ccc4nc3cc21

- emission maximum (in ClCCl): 620 nm
Structure (SMILES): CCCCCCCCCCCCN1C(=O)c2c(c3ccc4cc(-c5ccc(N(C)C)cc5)c(OC)cc4c3c3c2ccc2cc(-c4ccc(N(C)C)cc4)c(OC)cc23)C1=O

- emission maximum (in CN(C)C=O): 410 nm
Structure (SMILES): Brc1ccc2[nH]c(-c3ccc(-c4ccc(-c5ccc(-c6nc7cc(Br)ccc7[nH]6)cc5)cc4)cc3)nc2c1

Structure (SMILES): c1ccc2c(c1)c1ccccc1n2-c1ccc2c(c1)c1ccccc1n2-c1cc2c3ccccc3n3c4ccccc4c(c1)c23
- emission maximum (in C1CCCCC1): 391.83 nm
- emission maximum (in C1CCOC1): 402.09 nm
- emission maximum (in Cc1ccccc1): 400 nm

Structure (SMILES): COc1ccc(C2=C(c3ccc([N+](=O)[O-])cc3)C(c3ccccc3)=[N+]3C2=Nc2c(-c4ccc(OC)cc4)c(-c4ccc([N+](=O)[O-])cc4)c(-c4ccccc4)n2[B-]3(F)F)cc1
- emission maximum (in Cc1ccccc1): 688 nm

- emission maximum (in c1ccccc1): 450 nm
Structure (SMILES): O=c1oc2ccccc2nc1-c1ccccc1

- emission maximum (in CC#N): 426 nm
- emission maximum (in CN(C)C=O): 432 nm
- emission maximum (in ClCCl): 461 nm
Structure (SMILES): CCN(CC)c1ccc(/C=N/C2CCCCC2/N=C/c2ccc(N(CC)CC)cc2O)c(O)c1 (centres undefined)

- emission maximum (in ClCCl): 583 nm
Structure (SMILES): COc1ccccc1C1=[N+]2C(=Cc3c4c(c(-c5ccccc5OC)n3[B-]2(F)F)C2CCC4CC2)C2=C1C1CCC2CC1

- emission maximum (in CC#N): 572 nm
Structure (SMILES): C[n+]1ccn(CCCCc2ccc3c(c2)c2ccccc2n3-c2cc(C#N)c(C#N)cc2-n2c3ccccc3c3cc(CCCCn4cc[n+](C)c4)ccc32)c1

- emission maximum (in C1CCCCC1): 468 nm
- emission maximum (in CC#N): 495 nm
- emission maximum (in ClC(Cl)Cl): 488 nm
Structure (SMILES): O=C1Cc2ccc(cc2)CC(=O)Cc2ccc(c3nsnc23)C1

Structure (SMILES): Cc1cc(-c2nnc(-c3ccccc3)o2)ccc1-n1c2ccccc2c2ccccc21
- emission maximum (in CCO): 445 nm
- emission maximum (in Cc1ccccc1): 382 nm

- emission maximum (in ClCCl): 414 nm
Structure (SMILES): O=C1c2cc3ccccc3cc2C2=Nc3cccc[n+]3[B-](F)(F)N12

Structure (SMILES): c1ccc2c(c1)Oc1ccccc1N2c1ccc2c(c1)c1cc(N3c4ccccc4Oc4ccccc43)ccc1c1nc3ccccc3nc21
- emission maximum (in Cc1ccccc1): 614 nm

- emission maximum (in CCO): 439 nm
Structure (SMILES): O=c1c2cc(F)c(O)cc2oc2cc(O)c(F)cc12

- emission maximum (in ClC(Cl)Cl): 392 nm
Structure (SMILES): O=C1[C@@H]2[C@H](C(=O)N1c1cccc3cc4ccccc4cc13)[C@H]1C[C@@H]2c2c1c(-c1ccccc1)c1ccccc1c2-c1ccccc1

Structure (SMILES): CCn1c2ccccc2c2cc(-c3cc(-c4ccc5c(c4)c4ccccc4n5CC)nc(-c4ccc(OC)cc4)n3)ccc21
- emission maximum (in C1CCOC1): 385 nm
- emission maximum (in CCOC(C)=O): 384 nm
- emission maximum (in CN(C)C=O): 414 nm
- emission maximum (in Cc1ccccc1): 379 nm
- emission maximum (in ClCCl): 404 nm

- emission maximum (in C1CCOC1): 591 nm
Structure (SMILES): CC(C)(C)c1ccc(C2=C(c3ccc(N(c4ccccc4)c4ccccc4)cc3)S(=O)(=O)c3c2sc(-c2ccc(N(c4ccccc4)c4ccccc4)cc2)c3-c2ccc(C(C)(C)C)cc2)cc1

Structure (SMILES): c1cc2ccc3ccc4cc3c2cc1c1ccc2ccc3ccc(cc3c2c1)c1ccc2c(c1)c1cc4ccc1[C@]13OCCO[C@]21OCCO3
- emission maximum (in Cc1ccccc1): 421 nm

- emission maximum (in C1CCCCC1): 435 nm
- emission maximum (in CC#N): 588 nm
- emission maximum (in CC(C)O): 611.34 nm
- emission maximum (in CO): 676 nm
- emission maximum (in CS(C)=O): 587.85 nm
- emission maximum (in ClC(Cl)Cl): 524 nm
- emission maximum (in c1ccccc1): 487.85 nm
Structure (SMILES): CC(=O)c1ccc(-c2nc3ccc(N(C)C)cc3s2)cc1

- emission maximum (in CC#N): 422 nm
- emission maximum (in CCO): 459 nm
Structure (SMILES): CC(C)=CC(=O)c1cc2c(cc1F)NC(C)(C)CC2=O

- emission maximum (in C1CCCCC1): 463 nm
- emission maximum (in C1CCOC1): 484 nm
- emission maximum (in C1COCCO1): 493 nm
- emission maximum (in CC#N): 492 nm
- emission maximum (in CCCCCC): 464 nm
- emission maximum (in CO): 487 nm
- emission maximum (in ClC(Cl)Cl): 469 nm
Structure (SMILES): F[B-]1(F)n2c(nc(Br)c2Br)-c2cccc[n+]21

- emission maximum (in ClCCl): 535 nm
Structure (SMILES): [O-][n+]1c(/C=C/c2ccccc2)nc(N2CCOCC2)c2c1CCCC2

Structure (SMILES): CC1(C)c2ccccc2N(c2ccccc2)c2ccc(-c3nc(-c4ccccc4)nc(-c4ccccc4)n3)cc21
- emission maximum (in Cc1ccccc1): 430.68 nm
- emission maximum [1]: 452 nm

Structure (SMILES): COC(=O)C(Cc1ccc2oc(-c3ccc(N(c4ccccc4)c4ccccc4)cc3)nc2c1)NC(=O)OC(C)(C)C (centres undefined)
- emission maximum (in C1CCCCC1): 395.25 nm
- emission maximum (in C1CCOC1): 447.04 nm
- emission maximum (in C1COCCO1): 436.75 nm
- emission maximum (in CC1CCCCC1): 395 nm
- emission maximum (in CC1COC(=O)O1): 474 nm
- emission maximum (in CC#N): 465.75 nm
- emission maximum (in CC(C)=O): 456.17 nm
- emission maximum (in CC(C)O): 455.75 nm
- emission maximum (in CC(O)CO): 482.75 nm
- emission maximum (in CCCCCC): 392.75 nm
- emission maximum (in CCCCCCCC): 394 nm
- emission maximum (in CCCCCO): 454.75 nm
- emission maximum (in CCCCO): 454.5 nm
- emission maximum (in CCO): 475.75 nm
- emission maximum (in CCOC(C)=O): 448.75 nm
- emission maximum (in CN(C)C=O): 461.75 nm
- emission maximum (in CO): 486 nm
- emission maximum (in COCCOC): 453.75 nm
- emission maximum (in CS(C)=O): 474.5 nm
- emission maximum (in ClC(Cl)Cl): 445 nm
- emission maximum (in ClCCl): 451.25 nm
- emission maximum (in N#Cc1ccccc1): 461.25 nm
- emission maximum (in NC=O): 491.5 nm
- emission maximum (in O): 502.99 nm
- emission maximum (in OCC(F)(F)F): 496.25 nm

- emission maximum (in C1CCOC1): 468 nm
Structure (SMILES): Cc1cc(C2=C(c3cc(C)sc3C)P(=O)(c3ccccc3)c3ccccc32)c(C)s1 (centres undefined)

Structure (SMILES): CC(C)CCCCN1CCc2c1ccc1c3c(ccc21)C(=O)CCC3
- emission maximum (in C1CCCCC1): 433 nm
- emission maximum (in CC#N): 489 nm
- emission maximum (in CC(C)O): 512 nm
- emission maximum (in CCC(C)=O): 481 nm
- emission maximum (in CCO): 522 nm
- emission maximum (in CCOC(C)=O): 467 nm
- emission maximum (in CS(C)=O): 472 nm
- emission maximum (in Cc1ccccc1): 452 nm
- emission maximum (in ClCCl): 472 nm
- emission maximum (in Clc1ccccc1): 462 nm

- emission maximum (in ClC(Cl)Cl): 495 nm
Structure (SMILES): CCCCCCN1C(=O)c2cccc3c(-c4ccc(-c5ccc6c7c(cccc57)C(=O)N(CCCCCC)C6=O)s4)ccc(c23)C1=O

Structure (SMILES): COc1ccc(/N=N/c2c(O)c3ccccc3n(C)c2=O)c(S(=O)(=O)O)c1
- emission maximum (in C1CCOC1): 527 nm
- emission maximum (in CC(C)=O): 528 nm
- emission maximum (in CCOC(C)=O): 525 nm
- emission maximum (in CO): 532 nm
- emission maximum (in CS(C)=O): 548 nm
- emission maximum (in Cc1ccccc1): 519 nm
- emission maximum (in ClCCl): 542 nm
- emission maximum (in O): 583 nm

- emission maximum (in C1CCOC1): 497.22 nm
Structure (SMILES): CCN(CC)c1ccc(-c2nc3c(nc2-c2ccc([B-](F)(c4c(C)cc(C)cc4C)c4c(C)cc(C)cc4C)cc2)c2ccccc2n3C)cc1

- emission maximum (in C1CCCCC1): 421 nm
- emission maximum (in CC#N): 432 nm
- emission maximum (in CO): 428 nm
- emission maximum (in ClCCl): 431 nm
Structure (SMILES): COc1c2ccccc2c(OC)c2c1c1cc(Cl)ccc1n2C

- emission maximum (in C1CCCCC1): 630 nm
- emission maximum (in CCOC(C)=O): 665 nm
Structure (SMILES): CC1=[N+]2C(=C(Oc3ccccc3)c3ccc(C)n3[B-]2(F)F)C=C1c1cc2n(c1)[B-](F)(F)[N+]1=CC=CC1=C2c1c(C)cc(C)cc1C

- emission maximum (in ClCCl): 405 nm
Structure (SMILES): O=Cc1ccc2c(c1)c1ccccc1n2-c1ccc(-c2ccc(-n3c4ccccc4c4cc(C=O)ccc43)cc2)cc1

- emission maximum (in C1CCOC1): 495 nm
Structure (SMILES): CC(C)(C)c1ccc(C2=Cc3cc4c(cc3P2(=O)c2ccccc2)C=C(c2ccc(C(C)(C)C)cc2)P4(=O)c2ccccc2)cc1 (centres undefined)

- emission maximum (in CC#N): 420 nm
Structure (SMILES): CCNc1cc2oc(=O)cc(C)c2cc1C

Structure (SMILES): CCOC(=O)C1=C(C)NC2=C(C(=O)c3ccccc32)C1c1ccc(N(C)C)cc1 (centres undefined)
- emission maximum (in C1CCOC1): 497 nm
- emission maximum (in C1COCCO1): 490 nm
- emission maximum (in CC#N): 542 nm
- emission maximum (in CCO): 559 nm
- emission maximum (in CN(C)C=O): 540 nm
- emission maximum (in CO): 561 nm
- emission maximum (in CS(C)=O): 548 nm
- emission maximum (in ClC(Cl)(Cl)Cl): 475 nm
- emission maximum (in ClC(Cl)Cl): 532 nm
- emission maximum (in ClCCl): 530 nm

- emission maximum (in ClCCl): 440 nm
Structure (SMILES): C1=Cc2ccc(N(c3ccccc3)c3ccccc3)cc2Cc2cc(N(c3ccccc3)c3ccccc3)ccc21

- emission maximum (in ClC(Cl)Cl): 513 nm
Structure (SMILES): COc1ccc(-n2c3c4ccccc4nc(-c4ccc(C#N)cc4)c3c3c2c2c(-c4ccc(C#N)cc4)nc4ccccc4c2n3-c2ccc(OC)cc2)cc1

- emission maximum (in C1CCCCC1): 390 nm
Structure (SMILES): CCCCCCCCOc1ccc2c3c(c4ccc(OCCCCCCCC)cc4c2c1)C(C)(C)c1ccccc1-3

- emission maximum (in CC#N): 532 nm
Structure (SMILES): COC(=O)CC1(C(=O)OC)Oc2c(c(C(C)=O)c3c(c2C(C)=O)OCO3)O1

- emission maximum (in ClCCl): 409 nm
Structure (SMILES): CCOC(=O)c1c(-c2c(Cl)c3ccccc3oc2=O)nn(-c2cccc(Cl)c2)c1C(=O)OCC

- emission maximum (in ClCCl): 388 nm
Structure (SMILES): CC(C)(C)NC(=O)c1cccc2ccc3c4ccc(F)cc4c4cc(F)ccc4c3c12

- emission maximum (in ClCCl): 436 nm
Structure (SMILES): CC(C)(C)c1ccc2c(c1)-c1c3c(c4c5c1-c1cc(C(C)(C)C)ccc1OB5Oc1ccc(C(C)(C)C)cc1-4)-c1cc(C(C)(C)C)ccc1OB3O2

- emission maximum (in C1CCOC1): 424 nm
Structure (SMILES): CCCCn1c2ccc(-c3cccs3)cc2c2c1c1c3ccc(-c4cccs4)cc3n(CCCC)c1c1c3ccc(-c4cccs4)cc3n(CCCC)c21

Structure (SMILES): Cc1cc(-n2c3ccccc3c3cc4c(cc32)C2c3ccccc3C4c3ccccc32)c(C)cc1-c1nc(-c2ccccc2)nc(-c2ccccc2)n1
- emission maximum (in Cc1ccccc1): 427 nm
- emission maximum [1]: 442 nm

- emission maximum (in CO): 535 nm
- emission maximum (in CS(C)=O): 505 nm
- emission maximum (in ClC(Cl)Cl): 485 nm
- emission maximum (in c1ccccc1): 465 nm
Structure (SMILES): CCC1=C(C)C(=O)n2c1cc1c(C)c(CC(=O)O)c(C)n1c2=O
